The values below are quoted from earlier work in patent US20070196488A1, “Oral matrix formulations comprising licarbazepine” (priority 2004, published 2007).

The subject of the data set is epilepsy. The conditions noted are these: racemate compared with both pure enantiomers.

In the case of `NC(=O)N1c2ccccc2CC(O)c2ccccc21` (racemic) [Licarbazepine, 10,11-dihydro-10-hydroxy-5H-dibenz[b,f]azepine-5-carboxamide], the efficacy against epilepsy entry is “equal efficacy”.
